# According to a melting point compilation (Tetko et al.; mined from patent text by program, amines drawn as free bases though some values may be those of a salt):
row,Structure (SMILES),melting point
1,Cn1ncc(/C=C/C(=O)Nc2ccc(CC(=O)NN)cc2)c1-c1ccc(F)cc1,273 to 274 °C
2,Cc1nnc(-c2ccnc(NCc3cccnc3)c2)o1,139 to 140 °C
3,Cc1c(-c2ccccc2)n(-c2c(F)c(F)c(F)c(F)c2F)c(-c2ccccc2)cc1=O,192 to 194 °C
4,Cc1nn(-c2ccc(F)cc2)c(C)c1C(=O)Nc1ccc(OCC(C)(C)C)c(C#N)c1,174 to 175 °C
5,N#Cc1cc(Cl)c(NC(=O)NC(=O)c2ccccc2Cl)cc1Cl,244 to 247 °C
6,CC12CC(N3CCC(O)CC3)C(O)CC1CCC1C2CCC2(C)C(O)C(N3CCCC3)CC12 (stereo unspecified),188 to 190 °C
7,Oc1cc2c3c(sc2c(Cl)c1Cl)CCCC3,103 to 105 °C
8,CCOC(=O)c1cnn(-c2c(Cl)cc(C(F)(F)F)cc2Cl)c1N,131 to 134 °C
9,CCn1ncc2c1ncc1c(OCCC(C)C)nc3cc(C)nn3c12,60 to 62 °C
10,CC(=O)Nc1nnc2c3c(c(N4CCCCC4)nn12)CCCC3,214 to 216 °C
11,CCOC(=O)NN=C(c1ccc(Cl)cc1)c1ccc(OC(=O)CC)cc1,120 to 146 °C
12,CC(=O)c1ccc(S(=O)(=O)Nc2cccnc2)cc1,182 to 183 °C
13,Cc1cccc(-c2nccc(-c3ccccc3C)n2)n1,119 °C
14,COc1cc(N)c(C)cc1N=Nc1ccc([N+](=O)[O-])cc1,136 to 137 °C
15,CC(C)(C)c1ccc(-c2ccc3c(C(N)=O)nn(-c4ccc(S(N)(=O)=O)cc4)c3c2)cc1,262 to 263 °C
16,COC(=O)C(=O)c1ccc(OCCCCCCOc2ccccc2)cc1,50 to 52 °C
17,COC(=O)c1cc(C(=O)c2ncc3ccccn23)ccc1NC(=O)c1ccccc1,218 °C
18,CCOc1ccccc1O[C@@H](c1ccccc1)[C@@H](CO)OS(C)(=O)=O (racemic),83 to 86 °C
19,Cc1cccc2c1Sc1c(C)cccc1N2,140 to 141 °C
20,O=C1C2C3C=CC(C3)C2C(=O)N1OS(=O)(=O)CCSC1CCCCC1 (stereo unspecified),96 to 98 °C
21,CCCCc1nc2c(=O)n(Cc3ccc(-c4ccccc4C#N)cc3)ccc2n1Cc1ccc(-c2ccccc2C#N)cc1,83 °C
22,NC(=O)C(Nc1ccccc1C(=O)C1CC1)c1c(Cl)cccc1Cl (stereo unspecified),196 °C
23,CC(C)CN1CCC(c2ccc(Br)cc2)CC1,36 to 37 °C
24,CN1CCN=C1CC(c1ccccc1)c1ccccc1,108 to 110 °C
25,CCCN1Cc2c(ncnc2C2C(=O)Nc3ccc(C#N)cc32)N1 (stereo unspecified),> 300 °C
26,CN(C)Cc1nc(-c2ncn3c2C2CCCN2C(=O)c2c(Cl)cccc2-3)no1 (stereo unspecified),261 °C

row,Structure (SMILES),melting point
1,O=C1c2ccccc2C(=O)N1CCc1cccc(C(F)(F)F)c1,69 to 71 °C
2,CC(N1CCC(Cc2ccccc2)CC1)C(O)(NC(=O)c1ccccc1)c1ccc(N)cc1 (stereo unspecified),126 to 129 °C
3,COCCCn1nnnc1-c1cc(-c2cc(C(C)C)ccc2OC)c(OCc2ccccc2)cc1OCc1ccccc1,102 to 104 °C
4,CC(C)(C)OC(=O)NCCNS(=O)(=O)c1ccc(Br)s1,106 °C
5,OCc1cccn2cc(-c3ccccc3)nc12,85 to 87 °C
6,COC(=O)c1sc(-c2ccccc2)cc1N=NN(C)C,92 to 94 °C
7,Cc1ccc(C2c3c(C)c(N4Cc5cc(Cl)c(Cl)cc5C4)c(C)c(C)c3OC2(C)C)cc1 (stereo unspecified),201 to 203 °C
8,COC(=O)/C=C/c1cccc(-c2c(CC(=O)Nc3ccc(Cl)cc3C(F)(F)F)c(=O)oc3cc(Cl)c(C)cc23)c1,202 to 204 °C
9,Cc1cncc(C)c1-c1c(C)cc(N)cc1C,134 to 135 °C
10,COc1ccc(OC)c2c1COC(c1ncc(S(=O)(=O)c3ccc(C)cc3)o1)C2 (stereo unspecified),138 to 140 °C
11,CNc1cc(N2CCOCC2)nc(N2CCOCC2)n1,127 to 128 °C
12,O=C(O)c1ccc2c(c1)C(=O)c1cc(C(=O)O)ccc1S2(=O)=O,372 to 375 °C
13,CC1(O)CN(C(=O)c2cc(C(C)(C)C)c(O)c(C(C)(C)C)c2)C1,148 to 153 °C
14,CCN(C)C(=O)C(C)n1cc(C)c(-c2ccccc2)n1 (stereo unspecified),59 to 61 °C
15,CN(C)c1ccc2c(c1)C(=O)N(c1ccc(CCCC(=O)OC(C)(C)C)cc1)C2,115 to 116 °C
16,N#Cc1cc(NC(=O)c2ccn(-c3ccc(F)cc3)c2)ccc1N1CCN(C2CCOCC2)CC1,240 °C
17,CCCSc1sc(C(N)=O)c2c1-c1[nH]ncc1CC2,163 to 164 °C
18,O=C1CCC(N2Cc3c(OCc4ccc(CN5CCN(S(=O)(=O)c6ccccc6)CC5)cc4)cccc3C2=O)C(=O)N1 (stereo unspecified),220 to 222 °C
19,NC(=O)c1nc(-c2cccnc2)nc2c1[nH]c(=O)n2[C@H]1CC[C@H](O)CC1,331 to 333 °C
20,O=C(NCCc1ccc(O)c(O)c1)c1cccnc1,156 to 162 °C
21,COC(=O)c1ccc(NC(=O)c2ccccc2C)nc1,167 to 169 °C
22,CN1CC(CNNC(=S)Nc2ccccc2)CC2c3cccc4[nH]cc(c34)CC21 (stereo unspecified),205 to 206 °C
23,Cc1c(-c2ccc(O)cc2)n(Cc2ccc(OCCN3CCCCC3C)cc2)c2ccc(O)cc12 (stereo unspecified),121 to 123 °C
24,CCCCCCCCCCCCCCCCC[C@@H](O)CC(=O)OC,64 to 64.5 °C
25,O=C1c2ccc(-c3cccc(C(F)(F)F)c3)cc2CC1Br (stereo unspecified),96 °C
26,CC(=O)Nc1cccc(C#Cc2ccc(OC3CN4CCC3CC4)nn2)c1 (stereo unspecified),132 to 134 °C

row,Structure (SMILES),melting point
1,O=C1Nc2ccc(I)cc2C1=NNC(=O)c1ccc(I)cc1,326 °C
2,CC(C)N(Cc1ccccc1)c1ncnc2nc[nH]c12,200 to 202 °C
3,NC(=O)Cc1ccc2c(c1)C(=O)Cc1cccnc1S2,215 to 216 °C
4,O=C1C(c2cccn2-c2ccccc2)=CC(=O)c2ncccc21,132 to 134 °C
5,O=C(Cc1ccc(Cl)cc1)c1ccc(Br)cc1,128 to 129 °C
6,CCc1nn2ccccc2c1N(CCCF)C(C)=O,76.6 to 79.6 °C
7,COC(=O)CCC(C)C1CCC2C3CCC4CC(N=[N+]=[N-])CCC4(C)C3CC(=O)C12C (stereo unspecified),153 °C
8,CCC1c2cccn2-c2ccc(F)cc2N1S(=O)(=O)c1cc(C)c(OC)c(C)c1 (stereo unspecified),140 to 142 °C
9,CC(=O)Nc1c(CC(=O)O)cccc1Oc1ccccc1,155 to 156 °C
10,Cc1cc(-c2nc(-c3c(F)cccc3Cl)nn2C)ccc1-c1ccc(OC(F)(F)F)cc1,117 to 122 °C
11,Cn1nc2c([N+](=O)[O-])cc3nc(O)c(O)nc3c2n1,> 300 °C
12,Cc1cnc2c(c1)C(=O)N(C(C)C)C2=O,127 to 128 °C
13,CC(C)OC(=O)COCc1cc(-c2nn(C)c(C(F)(F)F)c2Cl)c(F)cc1Cl,55 °C
14,COCCCNC(=O)c1ccc(C(=O)N2CCN(c3ncccc3NCC(C)C)CC2)nc1,109 to 110 °C
15,N#CCNC(=O)C(F)(F)F,39 to 40 °C
16,CC12CCC(=O)C=C1CCC1C3CC(OCC4CO4)C(O)(C(=O)CO)C3(C)CC(O)C12F (stereo unspecified),191 to 192 °C
17,CCOC(=O)NCc1cc(-c2ccccc2)no1,82 °C
18,CCCc1c(C(=O)N2CCOCC2)c2ccc(C(N)=O)cc2n1Cc1ccccc1Cl,229 to 230 °C
19,COc1ccc(CCNC(=O)CCCCC(=O)NCCc2cccc3ccccc23)cc1OC,156 to 157 °C
20,NC1CCn2c(CCc3ccccc3)nc3cccc1c32 (stereo unspecified),43.6 to 45.6 °C
21,COCCOc1ccc(/C=C/COC(=O)NS(=O)(=O)NCCN2CCCC2)c(Oc2ncc(C(F)(F)F)cc2Cl)c1,154 to 156 °C
22,COc1cccc(P2(=O)c3ccccc3CN2c2ccccc2)c1 (stereo unspecified),170 to 172 °C
23,O=S(=O)(Nc1ncnc(Cl)c1-c1ccc(OCc2ccccc2)cc1)c1ccc(Cl)cc1,234 to 236 °C
24,CCOC(=O)c1ncn(-c2nccs2)c1S,155 to 158 °C
25,CC(C)(C)C(NC(=O)CCCc1cccnc1)NC(=NC#N)Nc1cccc2ncccc12 (stereo unspecified),181 to 182 °C
26,COc1ccc(S(=O)(=O)N2C(=O)C(OCC(=O)N3CCN(c4ccncc4)CC3)(c3ccccc3OC(C)C)c3cc(Cl)ccc32)c(OC)c1 (stereo unspecified),201 to 203 °C

row,Structure (SMILES),melting point
1,CSc1cccc(NC(C)=N)c1,134 to 135 °C
2,O=C(O)c1cc2c(s1)-c1ccccc1OC2C1=CCCC=C1 (stereo unspecified),258 to 260 °C
3,CSc1ccc(CSc2nnc(-c3ccc4c(c3)CCO4)o2)cc1C(F)(F)F,108 to 109 °C
4,CCCC(=O)C(=CNc1ccccc1F)C(=O)OCC,60 to 62 °C
5,O=C1Cc2ccc(-c3ccccc3)cc2N1,173 to 175 °C
6,C=C(Cn1ccnc1)c1cc(F)ccc1OCc1ccc(Cl)cc1Cl,79 to 82 °C
7,COCc1cc(Cl)n2nc(SC)c(S(=O)(=O)c3ccccc3)c2n1,194 to 197 °C
8,CC(C)C=C1CCC2(C1)C(=O)C=C(OC(C)C)CC2C (stereo unspecified),88 to 91 °C
9,COc1ccc2c(c1)C(CCCCNC(C)=O)=CCC2,79 to 81 °C
10,N#Cc1oc2c(sc3ccccc32)c1O,174 to 175 °C
11,C=CCNc1ccc([N+](=O)[O-])cc1C(=O)c1ccccc1,97 °C
12,NS(=O)(=O)c1cc2c(s1)SCCNC2=O,> 270 °C
13,CC(=O)c1cccc(-c2c(C)c(NC(=O)CC(C)(C)C)c(C)c3c2OCC3c2ccc(C(C)C)cc2)c1 (stereo unspecified),209 to 210 °C
14,Cc1nc(C)nc(NC(=O)NS(=O)(=O)c2ccccc2C)n1,141 to 145 °C
15,CC1=C(c2ccncc2)CC(C)C(=O)N1 (stereo unspecified),148 to 150 °C
16,CC(C)c1nsc(N)c1C#N,130 to 132 °C
17,CNC(=O)N(C)c1nnc(C(C)(C)CCl)s1,159 to 161 °C
18,Cc1ccnc2c1N=C(n1ccnc1)c1cccnc1N2C1CC1,198 to 200 °C
19,COc1cc(Cc2cnc(NOC3CCCCO3)nc2NO)cc(OC)c1OC (stereo unspecified),190 to 192 °C
20,CCOC(=O)C1Oc2ccc(Cl)c(Cl)c2O1 (stereo unspecified),58 to 61 °C
21,CCc1ccc2nc(C)[nH]c2c1N1CC(CI)OC1=O (stereo unspecified),143 to 144 °C
22,CCC(CC)Nc1cc(C)nc(Nc2c(C)cc(C)cc2C)c1N,213 to 216 °C
23,Fc1ccc2c(c1)OCc1c(-c3noc(C4CC4)n3)ncn1-2,182 to 184 °C
